Laboratory results published in patent US6355799B1, “Substituted benzene compounds, process for their preparation, and herbicidal and defoliant compositions containing them” (ISK Americas Incorporated, priority 1997, dated 2002).

Columns and labels:
Format in all cases: in vivo
[1] = system: upland rice (Oryza sp., var. Tebonnet, RICE); assay: Post-emerge test, crop safety; details: post-emerge, 14 days after application, rating scale 0-100
Summary of the method: (§1)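 Herbicidal damage is scored 0 (none) to 100 (complete plant death) two weeks after a simulated field spray. Rates span 15–1000 g ai/ha, delivered in acetone at 187 l/ha. For post-emergence treatments, plants have 2–3 leaves and the spray carries 0.25% v/v non-ionic surfactant.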

[2] = system: field corn (Zea mays L., var. Dekalb 535, CORN); assay: Post-emerge test, crop safety; details: post-emerge, 14 days after application, rating scale 0-100
Summary of the method: as §1

[3] = system: barnyardgrass (Echinochloa crus-galli, ECHCG); assay: Post-emerge test, greenhouse herbicide activity screening; details: post-emerge, 14 days after application, rating scale 0-100
Summary of the method: (§2)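 Rating: 0–100 visual injury, 14 DAA. Application: acetone, 187 l/ha, 15–1000 g ai/ha, flat-fan track sprayer with nozzle 40–45 cm above soil or canopy. Post-emerge runs used 0.25% v/v surfactant on 2–3 leaf plants.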

[4] = system: sicklepod (Cassia obtusifolia, CASOB); assay: as above; details: post-emerge, 14 days after application, rating scale 0-100
Summary of the method: as §2

[5] = system: redroot pigweed (Amaranthus retroflexus, AMARE); assay: as above; details: post-emerge, 14 days after application, rating scale 0-100
Summary of the method: as §2

[6] = system: common ragweed (Ambrosia artemisizfolia L., AMBEL); assay: as above; details: post-emerge, 14 days after application, rating scale 0-100
Summary of the method: as §2

[7] = system: lambsquarters (Chenopodium album, CHEAL); assay: as above; details: post-emerge, 14 days after application, rating scale 0-100
Summary of the method: as §2

[8] = system: large crabgrass (Digitaria sanguinalis, DIGSA); assay: as above; details: post-emerge, 14 days after application, rating scale 0-100
Summary of the method: as §2

[9] = system: ivyleaf morningglory (Ipomoea hederacea, IPOHE); assay: as above; details: post-emerge, 14 days after application, rating scale 0-100
Summary of the method: as §2

[10] = system: green foxtail (Setaria viridis, SETVI); assay: as above; details: post-emerge, 14 days after application, rating scale 0-100
Summary of the method: as §2

[11] = system: johnsongrass (Sorghum halepense, SORHA); assay: as above; details: post-emerge, 14 days after application, rating scale 0-100
Summary of the method: as §2

[12] = system: velvetleaf (Abutilon theophrasti, ABUTH); assay: as above; details: post-emerge, 14 days after application, rating scale 0-100
Summary of the method: as §2

[13] = system: barnyardgrass (Echinochloa crus-galli, ECHCG); assay: Pre-emerge test, greenhouse herbicide activity screening; details: rated 14 days after application, 0 = no damage, 100 = complete death
Summary of the method: as §1

[14] = system: sicklepod (Cassia obtusifolia, CASOB); assay: as above; details: rated 14 days after application, 0 = no damage, 100 = complete death
Summary of the method: as §1

[15] = system: common ragweed (Ambrosia artemisizfolia L., AMBEL); assay: as above; details: rated 14 days after application, 0 = no damage, 100 = complete death
Summary of the method: as §1

[16] = system: lambsquarters (Chenopodium album, CHEAL); assay: as above; details: rated 14 days after application, 0 = no damage, 100 = complete death
Summary of the method: as §1

[17] = system: large crabgrass (Digitaria sanguinalis, DIGSA); assay: as above; details: rated 14 days after application, 0 = no damage, 100 = complete death
Summary of the method: as §1

[18] = system: ivyleaf morningglory (Ipomoea hederacea, IPOHE); assay: as above; details: rated 14 days after application, 0 = no damage, 100 = complete death
Summary of the method: as §1

[19] = system: green foxtail (Setaria viridis, SETVI); assay: as above; details: rated 14 days after application, 0 = no damage, 100 = complete death
Summary of the method: as §1

[20] = system: johnsongrass (Sorghum halepense, SORHA); assay: as above; details: rated 14 days after application, 0 = no damage, 100 = complete death
Summary of the method: as §1

[21] = system: velvetleaf (Abutilon theophrasti, ABUTH); assay: as above; details: rated 14 days after application, 0 = no damage, 100 = complete death
Summary of the method: as §1

[22] = system: redroot pigweed (Amaranthus retroflexus, AMARE); assay: as above; details: rated 14 days after application, 0 = no damage, 100 = complete death
Summary of the method: as §2

[23] = system: upland rice (Oryza sp., var. Tebonnet, RICE); assay: Pre-emerge test, crop safety; details: rated 14 days after application, 0 = no damage, 100 = complete death
Summary of the method: (§3)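 Compounds in acetone were track-sprayed at 15-1000 g ai/ha (187 l/ha) on sandy loam pots: pre-emerge one day after seeding, post-emerge at 2-3 leaf stage with 0.25% v/v non-ionic surfactant. Phytotoxicity was rated 14 days later on a 0 (no damage) to 100 (complete death) scale.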

[24] = system: field corn (Zea mays L., var. Dekalb 535, CORN); assay: Pre-emerge test, crop safety; details: rated 14 days after application, 0 = no damage, 100 = complete death
Summary of the method: as §3

COc1c(Cl)cc(F)c(-n2c(=O)cc(C(F)(F)F)n(C)c2=O)c1NC(=O)c1ccc(Cl)cc1 [2-56]
phytotoxicity rating RICE ([1]; 63 g ai/ha): 45 | phytotoxicity rating RICE ([1]; 250 g ai/ha): 90 | phytotoxicity rating CORN ([2]; 63 g ai/ha): 30 | phytotoxicity rating CORN ([2]; 250 g ai/ha): 80 | phytotoxicity rating ECHCG ([3]; 63 g ai/ha): 0 | phytotoxicity rating ECHCG ([3]; 250 g ai/ha): 50 | phytotoxicity rating CASOB ([4]; 63 g ai/ha): 100 | phytotoxicity rating CASOB ([4]; 250 g ai/ha): 100 | phytotoxicity rating AMARE ([5]; 63 g ai/ha): 100 | phytotoxicity rating AMARE ([5]; 250 g ai/ha): 100 | phytotoxicity rating AMBEL ([6]; 63 g ai/ha): 70 | phytotoxicity rating AMBEL ([6]; 250 g ai/ha): 100 | phytotoxicity rating CHEAL ([7]; 63 g ai/ha): 100 | phytotoxicity rating CHEAL ([7]; 250 g ai/ha): 100 | phytotoxicity rating DIGSA ([8]; 63 g ai/ha): 0 | phytotoxicity rating DIGSA ([8]; 250 g ai/ha): 30 | phytotoxicity rating IPOHE ([9]; 63 g ai/ha): 100 | phytotoxicity rating IPOHE ([9]; 250 g ai/ha): 100 | phytotoxicity rating SETVI ([10]; 63 g ai/ha): 80 | phytotoxicity rating SETVI ([10]; 250 g ai/ha): 60 | phytotoxicity rating SORHA ([11]; 63 g ai/ha): 0 | phytotoxicity rating SORHA ([11]; 250 g ai/ha): 60 | phytotoxicity rating ABUTH ([12]; 63 g ai/ha): 100 | phytotoxicity rating ABUTH ([12]; 250 g ai/ha): 100 | Pre-emerge Herbicidal Activity, phytotoxicity rating (0-100), ECHCG ([13]; 63 g ai/ha): 90 | Pre-emerge Herbicidal Activity, phytotoxicity rating (0-100), ECHCG ([13]; 250 g ai/ha): 100 | Pre-emerge Herbicidal Activity, phytotoxicity rating (0-100), CASOB ([14]; 63 g ai/ha): 100 | Pre-emerge Herbicidal Activity, phytotoxicity rating (0-100), CASOB ([14]; 250 g ai/ha): 100 | Pre-emerge Herbicidal Activity, phytotoxicity rating (0-100), AMBEL ([15]; 63 g ai/ha): 100 | Pre-emerge Herbicidal Activity, phytotoxicity rating (0-100), AMBEL ([15]; 250 g ai/ha): 100 | Pre-emerge Herbicidal Activity, phytotoxicity rating (0-100), CHEAL ([16]; 63 g ai/ha): 100 | Pre-emerge Herbicidal Activity, phytotoxicity rating (0-100), CHEAL ([16]; 250 g ai/ha): 100 | Pre-emerge Herbicidal Activity, phytotoxicity rating (0-100), DIGSA ([17]; 63 g ai/ha): 100 | Pre-emerge Herbicidal Activity, phytotoxicity rating (0-100), DIGSA ([17]; 250 g ai/ha): 100 | Pre-emerge Herbicidal Activity, phytotoxicity rating (0-100), IPOHE ([18]; 63 g ai/ha): 100 | Pre-emerge Herbicidal Activity, phytotoxicity rating (0-100), IPOHE ([18]; 250 g ai/ha): 100 | Pre-emerge Herbicidal Activity, phytotoxicity rating (0-100), SETVI ([19]; 63 g ai/ha): 100 | Pre-emerge Herbicidal Activity, phytotoxicity rating (0-100), SETVI ([19]; 250 g ai/ha): 100 | Pre-emerge Herbicidal Activity, phytotoxicity rating (0-100), SORHA ([20]; 63 g ai/ha): 99 | Pre-emerge Herbicidal Activity, phytotoxicity rating (0-100), SORHA ([20]; 250 g ai/ha): 100 | Pre-emerge Herbicidal Activity, phytotoxicity rating (0-100), ABUTH ([21]; 63 g ai/ha): 100 | Pre-emerge Herbicidal Activity, phytotoxicity rating (0-100), ABUTH ([21]; 250 g ai/ha): 100 | Pre-emerge Herbicidal Activity, phytotoxicity rating (0-100), AMARE ([22]; 63 g ai/ha): 100 | Pre-emerge Herbicidal Activity, phytotoxicity rating (0-100), AMARE ([22]; 250 g ai/ha): 100 | Pre-emerge phytotoxicity rating (0-100), crop damage, RICE ([23]; 63 g ai/ha): 30 | Pre-emerge phytotoxicity rating (0-100), crop damage, RICE ([23]; 250 g ai/ha): 95 | Pre-emerge phytotoxicity rating (0-100), crop damage, CORN ([24]; 63 g ai/ha): 80 | Pre-emerge phytotoxicity rating (0-100), crop damage, CORN ([24]; 250 g ai/ha): 95

COc1c(Cl)cc(F)c(-n2c(=O)cc(C(F)(F)F)n(C)c2=O)c1NC(=O)c1ccc(Cl)cc1Cl [2-58]
phytotoxicity rating RICE ([1]; 63 g ai/ha): 50 | phytotoxicity rating RICE ([1]; 250 g ai/ha): 85 | phytotoxicity rating CORN ([2]; 63 g ai/ha): 40 | phytotoxicity rating CORN ([2]; 250 g ai/ha): 90 | phytotoxicity rating ECHCG ([3]; 63 g ai/ha): 20 | phytotoxicity rating ECHCG ([3]; 250 g ai/ha): 90 | phytotoxicity rating CASOB ([4]; 63 g ai/ha): 100 | phytotoxicity rating CASOB ([4]; 250 g ai/ha): 100 | phytotoxicity rating AMARE ([5]; 63 g ai/ha): 100 | phytotoxicity rating AMARE ([5]; 250 g ai/ha): 100 | phytotoxicity rating AMBEL ([6]; 63 g ai/ha): 100 | phytotoxicity rating AMBEL ([6]; 250 g ai/ha): 100 | phytotoxicity rating CHEAL ([7]; 63 g ai/ha): 100 | phytotoxicity rating CHEAL ([7]; 250 g ai/ha): 100 | phytotoxicity rating DIGSA ([8]; 63 g ai/ha): 10 | phytotoxicity rating DIGSA ([8]; 250 g ai/ha): 40 | phytotoxicity rating IPOHE ([9]; 63 g ai/ha): 95 | phytotoxicity rating IPOHE ([9]; 250 g ai/ha): 100 | phytotoxicity rating SETVI ([10]; 63 g ai/ha): 50 | phytotoxicity rating SETVI ([10]; 250 g ai/ha): 60 | phytotoxicity rating SORHA ([11]; 63 g ai/ha): 20 | phytotoxicity rating SORHA ([11]; 250 g ai/ha): 90 | phytotoxicity rating ABUTH ([12]; 63 g ai/ha): 100 | phytotoxicity rating ABUTH ([12]; 250 g ai/ha): 100 | Pre-emerge Herbicidal Activity, phytotoxicity rating (0-100), ECHCG ([13]; 63 g ai/ha): 50 | Pre-emerge Herbicidal Activity, phytotoxicity rating (0-100), ECHCG ([13]; 250 g ai/ha): 100 | Pre-emerge Herbicidal Activity, phytotoxicity rating (0-100), CASOB ([14]; 63 g ai/ha): 30 | Pre-emerge Herbicidal Activity, phytotoxicity rating (0-100), CASOB ([14]; 250 g ai/ha): 99 | Pre-emerge Herbicidal Activity, phytotoxicity rating (0-100), AMBEL ([15]; 63 g ai/ha): 50 | Pre-emerge Herbicidal Activity, phytotoxicity rating (0-100), AMBEL ([15]; 250 g ai/ha): 100 | Pre-emerge Herbicidal Activity, phytotoxicity rating (0-100), CHEAL ([16]; 63 g ai/ha): 100 | Pre-emerge Herbicidal Activity, phytotoxicity rating (0-100), CHEAL ([16]; 250 g ai/ha): 100 | Pre-emerge Herbicidal Activity, phytotoxicity rating (0-100), DIGSA ([17]; 63 g ai/ha): 90 | Pre-emerge Herbicidal Activity, phytotoxicity rating (0-100), DIGSA ([17]; 250 g ai/ha): 100 | Pre-emerge Herbicidal Activity, phytotoxicity rating (0-100), IPOHE ([18]; 63 g ai/ha): 20 | Pre-emerge Herbicidal Activity, phytotoxicity rating (0-100), IPOHE ([18]; 250 g ai/ha): 100 | Pre-emerge Herbicidal Activity, phytotoxicity rating (0-100), SETVI ([19]; 63 g ai/ha): 100 | Pre-emerge Herbicidal Activity, phytotoxicity rating (0-100), SETVI ([19]; 250 g ai/ha): 100 | Pre-emerge Herbicidal Activity, phytotoxicity rating (0-100), SORHA ([20]; 63 g ai/ha): 70 | Pre-emerge Herbicidal Activity, phytotoxicity rating (0-100), SORHA ([20]; 250 g ai/ha): 100 | Pre-emerge Herbicidal Activity, phytotoxicity rating (0-100), ABUTH ([21]; 63 g ai/ha): 100 | Pre-emerge Herbicidal Activity, phytotoxicity rating (0-100), ABUTH ([21]; 250 g ai/ha): 100 | Pre-emerge Herbicidal Activity, phytotoxicity rating (0-100), AMARE ([22]; 63 g ai/ha): 100 | Pre-emerge Herbicidal Activity, phytotoxicity rating (0-100), AMARE ([22]; 250 g ai/ha): 100 | Pre-emerge phytotoxicity rating (0-100), crop damage, RICE ([23]; 63 g ai/ha): 80 | Pre-emerge phytotoxicity rating (0-100), crop damage, RICE ([23]; 250 g ai/ha): 95 | Pre-emerge phytotoxicity rating (0-100), crop damage, CORN ([24]; 63 g ai/ha): 40 | Pre-emerge phytotoxicity rating (0-100), crop damage, CORN ([24]; 250 g ai/ha): 95
